Laboratory results published in ChEMBL document CHEMBL1201862, “PubChem BioAssay data set” (2004).
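Briefly, cells in 96-well plates were exposed to five compound concentrations for 48 h, and endpoints were estimated by linear interpolation. GI50 is the concentration that inhibits growth by half.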 Activity calls are given as the source filed them. Rule as the data show it: active = GI50 up to about 1.1 µM and inactive = higher.

Experiments:
Assay in all cases: growth of human tumour cells (NCI), 48 h
Hs-578T = test system: Hs-578T
SK-MEL-5 = test system: SK-MEL-5
EKVX = test system: EKVX
SF-295 = test system: SF-295
OVCAR-8 = test system: OVCAR-8
SF-539 = test system: SF-539
SR = test system: SR
HCT-116 = test system: HCT-116
T47D = test system: T47D
TK-10 = test system: TK-10
U-251 = test system: U-251
HT-29 = test system: HT-29
CCRF-CEM = test system: CCRF-CEM
MDA-MB-435 = test system: MDA-MB-435
CAKI-1 = test system: CAKI-1
SK-OV-3 = test system: SK-OV-3
K562 = test system: K562
HCT-15 = test system: HCT-15
SK-MEL-2 = test system: SK-MEL-2
MCF7 = test system: MCF7
UACC-257 = test system: UACC-257
NCI-H460 = test system: NCI-H460
IGROV-1 = test system: IGROV-1
BT-549 = test system: BT-549
A498 = test system: A498
MOLT-4 = test system: MOLT-4
M14 = test system: M14
SNB-75 = test system: SNB-75
SF-268 = test system: SF-268
MDA-MB-231 = test system: MDA-MB-231
OVCAR-5 = test system: OVCAR-5
NCI-H522 = test system: NCI-H522
A549 = test system: A549
NCI-H23 = test system: NCI-H23
SW-620 = test system: SW-620
NCI-H226 = test system: NCI-H226
HOP-92 = test system: HOP-92
UACC-62 = test system: UACC-62
HOP-62 = test system: HOP-62
LOX IMVI = test system: LOX IMVI
OVCAR-3 = test system: OVCAR-3
UO-31 = test system: UO-31
SNB-19 = test system: SNB-19
COLO 205 = test system: COLO 205
RXF 393 = test system: RXF 393
786-0 = test system: 786-0
Malme-3M = test system: Malme-3M
OVCAR-4 = test system: OVCAR-4
RPMI-8226 = test system: RPMI-8226
ACHN = test system: ACHN
PC-3 = test system: PC-3
NCI/ADR-RES = test system: NCI/ADR-RES
KM12 = test system: KM12

O=C1CCCn2c(nc3ccccc32)N1
GI50 (Hs-578T): > 100 µM (inactive)
GI50 (SK-MEL-5): > 100 µM (inactive)
GI50 (EKVX): > 100 µM (inactive)
GI50 (SF-295): > 100 µM (inactive)
GI50 (OVCAR-8): > 100 µM (inactive)
GI50 (SF-539): > 100 µM (inactive)
GI50 (SR): > 100 µM (inactive)
GI50 (HCT-116): > 100 µM (inactive)
GI50 (T47D): > 100 µM (inactive)
GI50 (TK-10): > 100 µM (inactive)
GI50 (U-251): > 100 µM (inactive)
GI50 (HT-29): > 100 µM (inactive)
GI50 (CCRF-CEM): > 100 µM (inactive)
GI50 (MDA-MB-435): > 100 µM (inactive)
GI50 (CAKI-1): > 100 µM (inactive)
GI50 (SK-OV-3): > 100 µM (inactive)
GI50 (K562): > 100 µM (inactive)
GI50 (HCT-15): > 100 µM
GI50 (SK-MEL-2): > 100 µM (inactive)
GI50 (MCF7): > 100 µM (inactive)
GI50 (UACC-257): > 100 µM (inactive)
GI50 (NCI-H460): > 100 µM (inactive)
GI50 (IGROV-1): > 100 µM (inactive)
GI50 (BT-549): > 100 µM (inactive)
GI50 (A498): > 100 µM (inactive)
GI50 (MOLT-4): > 100 µM (inactive)
GI50 (M14): > 100 µM (inactive)
GI50 (SNB-75): > 100 µM (inactive)
GI50 (SF-268): > 100 µM (inactive)
GI50 (MDA-MB-231): > 100 µM (inactive)
GI50 (OVCAR-5): > 100 µM (inactive)
GI50 (NCI-H522): > 100 µM (inactive)
GI50 (A549): > 100 µM (inactive)
GI50 (NCI-H23): > 100 µM (inactive)
GI50 (SW-620): > 100 µM (inactive)
GI50 (NCI-H226): > 100 µM (inactive)
GI50 (HOP-92): > 100 µM (inactive)
GI50 (UACC-62): > 100 µM (inactive)
GI50 (HOP-62): > 100 µM (inactive)
GI50 (LOX IMVI): > 100 µM (inactive)
GI50 (OVCAR-3): > 100 µM (inactive)
GI50 (UO-31): > 100 µM (inactive)
GI50 (SNB-19): > 100 µM (inactive)
GI50 (COLO 205): > 100 µM (inactive)
GI50 (RXF 393): > 100 µM (inactive)
GI50 (786-0): > 100 µM (inactive)
GI50 (Malme-3M): > 100 µM (inactive)
GI50 (OVCAR-4): > 100 µM (inactive)
GI50 (RPMI-8226): > 100 µM (inactive)
GI50 (ACHN): > 100 µM (inactive)
GI50 (PC-3): > 100 µM (inactive)
GI50 (NCI/ADR-RES): > 100 µM (inactive)
GI50 (KM12): > 100 µM (inactive)
